What was measured:
thrombus = assay: Arteriovenous Shunt Model; assay type: in vivo, dogs; conditions: mean ± SEM; for Arterial Conditions T/B ratio / Venous Conditions T/B ratio: T/B = thrombus/background; for Arterial Conditions Uptake (% id/g) / Venous Conditions Uptake (% id/g): extracorporeal A-V shunt, 1 hr shunt period
Experimental: Arteriovenous Shunt Model: Adult mongrel dogs of either sex (9-13 kg) were anesthetized with pentobarbital sodium (35 mg/kg, i.v.) and ventilated with room air via an endotracheal tube (12 strokes/min,25 ml/kg). For arterial pressure determination, the left carotid artery was cannulated with a saline-filled polyethylene catheter (PE-240) and connected to a Statham pressure transducer (P23ID; Oxnard, Calif.). Mean arterial blood pressure was determined via damping the pulsatile pressure signal. Heart rate was monitored using a cardiotachometer (Biotach, Grass Quincy, Ma.) triggered from a lead II electrocardiogram generated by limb leads. A jugular vein was cannulated (PE-240) for drug administration. The both femoral arteries and femoral veins were cannulated with silicon treated (Sigmacote, Sigma Chemical Co. St Louis, Mo.), saline filled polyethylene tubing (PE-200) and connected with a 5 cm section of silicon treated tubing (PE-240) to form an extracorporeal arterio-venous shunts (A-V). Shunt patency was monitored using a doppler flow system (model VF-1, Crystal Biotech Inc, Hopkinton, Ma.) and flow probe (2-2.3 mm, Titronics Med. Inst., Iowa City, Iowa) placed proximal to the locus of the shunt. All parameters were monitored continuously on a polygraph recorder (model 7D Grass) at a paper speed of […] or 25 mm/sec.
On completion of a 15 min post surgical stabilization period, an occlusive thrombus was formed by the introduction of a thrombogenic surface (4-0 braided silk thread, 5 cm in length, Ethicon Inc., Somerville, N.J.) into the shunt one shunt with the other serving as a control. Two consecutive 1 hr shunt periods were employed with the test agent administered as an infusion over 5 min beginning 5 min before insertion of the thrombogenic surface. At the end of each 1 hr shunt period the silk was carefully removed and weighed and the % incorporation determined via well counting. Thrombus weight was calculated by subtracting the weight of the silk prior to placement from the total weight of the silk on removal from the shunt. Arterial blood was withdrawn prior to the first shunt and every 30 min thereafter for determination of blood clearance, whole blood collagen-induced platelet aggregation, thrombin-induced platelet degranulation (platelet ATP release), prothrombin time and platelet count. Template bleeding time was also performed at 30 min intervals.

venous thrombus = assay: Canine Deep Vein Thrombosis Model; assay type: in vivo, dogs; conditions: 1 mCi/Kg, i.v., given at reflow; jugular vein thrombi; 15, 60 and 120 min post-administration
Experimental: Canine Deep Vein Thrombosis Model: This model incorporates the triad of events (hypercoagulatible state, period of stasis, low shear environment) essential for the formation of a venous fibrin-rich actively growing thrombus. The procedure was as follows: Adult mongrel dogs of either sex (9-13 kg) were anesthetized with pentobarbital sodium (35 mg/kg,i.v.) and ventilated with room air via an endotracheal tube (12 strokes/min, 25 ml/kg). For arterial pressure determination, the right femoral artery was cannulated with a saline-filled polyethylene catheter (PE-240) and connected to a Statham pressure transducer (P23ID; Oxnard, Calif.). Mean arterial blood pressure was determined via damping the pulsatile pressure signal. Heart rate was monitored using a cardiotachometer (Biotach, Grass Quincy, Ma.) triggered from a lead II electrocardiogram generated by limb leads. The right femoral vein was cannulated (PE-240) for drug administration. A 5 cm segment of both jugular veins was isolated, freed from fascia and circumscribed with silk suture. A microthermister probe was placed on the vessel which serves as an indirect measure of venous flow. […] The agent was infused during the first 5 min of reflow and the rate of incorporation monitored using gamma scintigraphy.

Row | Substance | Arterial Conditions T/B ratio (thrombus) | Arterial Conditions Uptake (% id/g) (thrombus) | Venous Conditions T/B ratio (thrombus) | Venous Conditions Uptake (% id/g) (thrombus) | uptake in venous thrombus (typical images, gamma scintigraphy) (venous thrombus)
1 | Cyclo-((^125 I)D-Tyr-NMeArg-Gly-Asp-Mamb) [Example 8] | 173 ± 22 | 1.81 ± 0.18 % id/g | 19 ± 9 | 0.25 ± 0.15 % id/g | –
2 | Cyclo-(D-Val-NMeArg-Gly-Asp-Mamb([^99m TcO(MA-MAMA)]-5-Aca)) [Example 32] | 102 | 7.4 % id/g | 0 | 0 % id/g | –
3 | Cyclo-(D-Val-NMeArg-Gly-Asp-Mamb([^99m TcO(MeMAG2 gaba)]^- -5-Aca)) [Example 23] | 195 ± 39 | 5.41 ± 0.70 % id/g | 7 ± 0.4 | 0.21 ± 0.05 % id/g | –
4 | Cyclo-(D-Val-NMeArg-Gly-Asp-Mamb([^99m TcO(mapt)]^- -5-Aca)) [Example 19] | 142 ± 24 | 5.75 ± 1.28 % id/g | 13 ± 4 | 0.58 ± 0.22 % id/g | uptake in a rapidly growing venous thrombus
5 | Cyclo-([([^99m TcO(mapt)]^- -5-Aca)D-Lysσ-NMeArg-Gly-Asp-Mamb) [Example 21] | 113 ± 1 | 1.6 ± 0.12 % id/g | 4.0 ± 2 | 0.06 ± 0.03 % id/g | –
6 | Cyclo-([[^99m TcO(MeMAG2 gaba)]^- -D-Lys]-NMeArg-Gly-Asp-Mamb) [Example 22] | 158 ± 5 | 1.28 ± 0.44 % id/g | 7 ± 4 | 0.045 ± 0.02 % id/g | –
7 | Cyclo-([[^99m TcO(mapt)]^- -D-Lys]-NMeArg-Gly-Asp-Mamb) [Example 18] | 147 ± 44 | 0.47 ± 0.12 % id/g | 13 ± 3 | 0.04 ± .01 % id/g | –
8 | Cyclo-([^111 In-DTPA-D-Lys]-NMeArg-Gly-Asp-Mamb) [Example 16] | 128 ± 24 | 0.95 ± 0.29 % id/g | 14 | 0.08 % id/g | –
9 | [(^125 I)N-3-(4-hydroxyphenyl)propionyl]-Cyclo-(D-Lys-NMeArg-Gly-Asp-Mamb) [Example 9] | 44 ± 4 | 2.60 ± .005 % id/g | 8 ± 3 | 0.45 ± 0.11 % id/g | –
10 | ^99m Tc((EDDA)-Cyclo(D-Val-NMeArg-Gly-Asp-Mamb(hydrazino-nicotinyl-5-Aca)) [Example 13] | 163 ± 14 | 8.50 ± 0.20 % id/g | 33 ± 27 | 1.64 ± 1.32 % id/g | –
11 | ^99m Tc(tricine)2 -Cyclo(D-Val-NMeArg-Gly-Asp-Mamb(hydrazino-nicotinyl-5-Aca)) [Example 12] | 111 ± 6 | 6.15 ± 0.66 % id/g | 7.0 ± 2 | 0.46 ± 0.19 % id/g | uptake in a rapidly growing venous thrombus
12 | ^99m TcO(MAMA)-Cyclo-(D-Val-NMeArg-Gly-Asp-Mamb(5-Aca)) [Example 10] | 221 ± 16 | 5.00 ± 0.51 % id/g | 7 ± 0.6 | 0.16 ± 0.02 % id/g | –

— patent publication US5879657A, “Radiolabeled platelet GPIIb/IIIa receptor antagonists as imaging agents for the diagnosis of thromboembolic disorders” (The Dupont Merck Pharmaceutical Company, priority 1994, dated 1999)
